Test results from patent publication US6054437A, “Method for inducing death of neoplastic cells using piperazine derivatives” (Hitachi Chemical Research Center, Inc., priority 1997, dated 2000).
Entries after “also recorded” stand apart in the source; their conditions may differ. Structures can show the parent of a compound that is named as a salt. Where a SMILES comes first, the peptide text is derived from it. [ ]: non-standard residue; d: D form. Nle = CCCC[C@H](N)C(=O)O

What was measured:
[1] = test system: cancer cells having multidrug resistance; assay: Induction of cell death in cancer / multidrug-resistant cancer cells (comparison compounds); type: cell-based; settings: data omitted
Description: The specifically defined present piperazine derivatives having epoxy groups are believed to work through an epoxide group, but E-64 also contains an epoxide group. […] It is believed that not only epoxy group but also a piperazine ring are essential to induction of cell death in cancer. […] Other compounds having similar structures to the present piperazine derivatives, with respect to piperazine rings when present, and epoxy groups, have been tested (data omitted here), but no significant effect was observed, meaning that surprising and unexpected effects on induction of cell death in cancer, i.e., reversing mdr and in inducing death of cancer cells without significant toxicity to normal tissues, which appear to be pharmacologically beyond prevention of metastasis in cancer, are found in the specifically defined present compounds.

[2] = test system: PC-3 (prostate tumor cell line); assay: Apoptosis induced DNA fragmentation (agarose gel); type: cell-based, human; settings: PC-3, 25 μM, 48 hours
Method: PC-3, a prostate tumor cell line, was treated with 25 μM TOP-008, 50 μM NCO-700, or water for 48 hours. The DNA from each sample was purified by phenol extraction, and the fragmentation was resolved on an agarose gel.

[3] = test system: prostate cancer cell lines; assay: Cancer cell death assay (LDH release), prostate lines; type: cell-based, human; settings: compound alone, 24 hours
Method: (§1) 1. Cancer Cell Death Assay
(§2) Cell death was measured quantitatively by the release of a marker intracellular enzyme, lactate dehydrogenase (LDH), from damaged or killed cells. LDH released into the extracellular fluid, was measured 24 hours after drug exposure to cancer cells and the enzyme activity was determined by the method of Decker et al. (J. Immunolog Methods 15:61-99, 1988).
(§3) All cell lines used in the present study were obtained from the American Type Tissue Culture Laboratory and cultured according to their specifications. All were human cancer lines unless otherwise noted. The following cell lines and their tissue of origin used in our studies were:
(§4) The first assays performed measured the anti-neoplastic activity of NCO-700, alone, in cell death assays of a wide variety of human cancer cells. The results of these experiments are shown in FIGS. 1-6, where a dose-response curve of NCO-700 versus % LDH release is plotted, with higher values of LDH released indicating greater anti-neoplastic activity (apoptosis).
(§5) In FIG. 8, a dose-response curve is shown of the effect of TOP-008 on the killing of breast, prostate and colon cell lines.

[4] = test system: HS-578T (breast); assay: Cancer cell death assay (LDH release), HS-578T; type: cell-based, human; settings: for anti-neoplastic activity (LDH release) / potency compared to NCO-700: dose response (FIG. 7)
Method: as §1, §2
A series of analogs related to NCO-700 were assayed in the cancer cell death assay. […] It should be stressed that these analogs were tested alone, without any added chemotherapeutic agent.
Based on Experiment 1 above, the anti-cancer activity of NCO-700, TOP-008, and analogs, TOP-201, 202, 203, 204, 205, 206, 207, and 007, was tested in cancer cell death assays of human cancer cell line HS-578T. In FIGS. 34 (1,000 cells/well) and 35 (1,500 cells/well), a bar graph indicates the activity of a particular analog as measured by the % LDH released (DMSO, dimethyl sulfoxide=control), with higher values of LDH released indicating greater anti-neoplastic activity. All analogs were tested at a concentration of 25 μM.

[5] = test system: colon cancer cell lines; assay: Cancer cell death assay (LDH release), colon lines; type: cell-based, human; settings: compound alone, 24 hours
Method: as §1, §2, §3, §4, §5

[6] = test system: WIDR (colon); assay: Cancer cell survival assay, WIDR; type: cell-based, human; settings: FIG. 16 versus FIG. 31
Method: (§6) Cell survival was assayed in cultured tumor cells. From 500-1000 cells per well were plated in 24-welled culture dishes and exposed to drug for seven days. After drug exposure, a computerized cell imaging technique was utilized to ascertain the number of viable cells remaining in each culture. From the data, survival curves were plotted and a ED50 (drug concentration that permits 50% cell survival) were calculated.
The cancer cell survival assay is an important additional in vitro assay to assess the anti-neoplastic activity of compounds as the cells are given a prolonged exposure (seven days) to the drug. FIGS. 9-16 show the effect of increasing the dose of NCO-700 on the survival of a number of cancer cell lines. […] In the figures, the vertical axis is the object area, which is the number of surviving cancer cells calculated by a computer.
(§7) FIGS. 26-31 show the effect of increasing the dose of TOP-008 against a number of cancer cell lines. […] For example, if the activity of NCO-700 and TOP-008 are compared against the human colon cancer cell line WIDR (FIG. 16 in Experiment 1 versus FIG. 31) it is seen that the effective dose of TOP-008 is much lower in this particular assay.

[7] = test system: HS-578T (breast); assay: Apoptosis detection assay (annexin V / propidium iodide, flow cytometry); type: cell-based, human; settings: 50 μM and 25 μM (FIG. 36)
Method: Anti-neoplastic activity of TOP-008 was tested using a commercially available kit, Apoptosis Detection Kit, from R & D SYSTEMS (Minnesota) in which annexin V, a member of the calcum and phospholipid binding proteins, is used to detect apoptosis, following the protocol recommended by the manufacturer. TOP-008 was tested at a concentration of 50 μM, using Human breast cancer cell line HS-578T. Cells were washed in cold PBS twice and resuspended in a small volume of 1× binding buffer. Fluorescein-labeled annexin V and propidium iodide were added to the cells. The cells expressing phosphatidylserine on the outer leaflet of cell membranes bind annexin V and cells with a compromised cell membrane allow propidium iodide to bind to the cellular DNA. The resulting cells when immediately analyzed by flow cytometry can present three potential populations of cells: live cells which will not stain with either fluorochrome, necrotic cells which will stain with both fluorochrome, and cells undergoing apoptosis which will stain only with the annexin V-FITC reagent. Analysis was performed on cytometers equipped with a single laser emitting excitation light at 488 nm. The annexin V-FITC-generated signal was detected in the FITC signal detector (FL1). The results are shown in FIG. 36 in which the […]. […]

[8] = test system: cancer cell lines; assay: Cancer cell survival assay, a number of cancer cell lines; type: cell-based, human; settings: FIGS. 26-31, alone
Method: as §6, §7

[9] = test system: pancreatic cancer cell lines ASPC-1 and HS-766T; assay: Cancer cell death assay (LDH release), pancreatic lines; type: cell-based, human; settings: 25 μM, 24 hours
Method: as §2
As described in Experiment 1, the cancer cell death assays were performed to measure anti-neoplastic activity of the compounds, NCO-700, TOP-001, TOP-003, TOP-005, TOP-006, TOP-008, TOP-009, TOP-010, TOP-012, TOP-013, TOP-015, and TOP-017.
The following cell lines were obtained from the American Type Tissue Culture Laboratory and cultured according to their specifications: Human pancreatic cancer cell lines ASPC-1 and HS-766T.
The results of the experiments are shown in FIG. 32, where a bar graph indicates the activity of a particular analog as measured by the % LDH release stimulated by each analog for 24 hours, with higher values of LDH released indicating greater anti-neoplastic activity (apoptosis). All analogs were tested at a concentration of 25 μM.

[10] = test system: breast cancer cell lines; assay: Cancer cell death assay (LDH release), breast lines; type: cell-based, human; settings: compound alone, 24 hours
Method: as §1, §2, §3, §4, §5

[11] = test system: cells; assay: Long-term assay (cell survival assay), toxicity to cells; type: cell-based; settings: long-term assays (cell survival assay)
Method: as §6

[12] = in vivo; cited from earlier work
[13] = test system: epidermoid carcinoma A431 cells; settings: cited from earlier work

CC(C)C[C@H](NC(=O)[C@H]1O[C@@H]1C(=O)O)C(=O)NCCCCN=C(N)N [E-64]
effectiveness in cancer cells having multidrug resistance / induction of cell death [1]: not to be particularly effective in cancer cells having multidrug resistance

CCOC(=O)[C@@H]1O[C@H]1C(=O)N[C@@H](CC(C)C)C(=O)N1CCN(C/C=C/c2ccccc2)CC1 [TOP-008, Bis[ethyl (2R,3R)-3-[(S)-3-methyl-1-[4-(3-phenyl-2-propenyl)piperazin-1-ylcarbonyl]butylcarbamoyl]oxirane-2-carboxylate] Sulfate]
DNA fragmentation [2]: significant DNA fragmentation
anti-neoplastic activity (LDH release) [3]: excellent activity
anti-neoplastic activity (% LDH released) ([4]; HS-578T, 25 μM, 1,000 and 1,500 cells/well (FIGS. 34, 35)): very good anti-neoplastic activity
kill rate of breast cancer cells relative to NCO-700 ([4]; HS-578T, alone): approximately three-fold
anti-neoplastic activity (LDH release) / potency compared to NCO-700 ([4]; HS-578T, alone): higher potency; also recorded: highest potency
anti-neoplastic potency relative to NCO-700 ([4]; conclusion of Experiment 1): three-fold
anti-neoplastic activity (LDH release) [5]: excellent activity
effective dose compared with NCO-700 [6]: much lower
induction of apoptosis [7]: induced apoptosis in human breast cancer cells
anti-neoplastic activity (cell survival) [8]: highly active anti-neoplastic agent (apoptosis agent) and in some cases is much more active than NCO-700
anti-neoplastic activity (% LDH release) compared with NCO-700 [9]: significantly greater activity than NCO-700 itself
anti-neoplastic activity (LDH release) [10]: excellent activity

CCCC[C@@H](C=O)NC(=O)[C@H](CC(C)C)NC(=O)[C@H](CC(C)C)NC(C)=O [Calpain Inhibitor 1, N-acetyl-leu-leu-norleucinal] (Ac-Leu-Leu-[Nle]-aldehyde)
effectiveness in cancer cells having multidrug resistance / induction of cell death [1]: slightly effective
toxicity to the cells [11]: toxic to the cells
toxicity to the cells ([11]; listed as Calpain inhibitor I): its toxicity may be an obstacle

CC(C)C[C@H](NC(=O)[C@@H]1O[C@H]1C(=O)OCc1ccccc1)C(=O)N1CCN(C/C=C/c2ccccc2)CC1 [TOP-009, Bis[benzyl (2R,3R)-3-[(S)-3-methyl-1-[4-(3-phenyl-2-propenyl)piperazin-1-ylcarbonyl]butylcarbamoyl]oxirane-2-carboxylate] Sulfate]
anti-neoplastic activity (LDH release) / potency compared to NCO-700 ([4]; HS-578T, alone): higher potency
anti-neoplastic activity (% LDH release) compared with NCO-700 [9]: significantly greater activity than NCO-700 itself

COc1cccc2c1C(=O)c1c(O)c3c(c(O)c1C2=O)C[C@@](O)(C(=O)CO)C[C@@H]3O[C@H]1C[C@H](N)[C@H](O)[C@H](C)O1 [adriamycin]
side effects [12]: inevitable side effects such as hair loss, weight loss, and liver and kidney damage

CCOC(=O)[C@H]1O[C@@H]1C(=O)N[C@@H](CC(C)C)C(=O)NCCC(C)C [E-64-d]
cell cycle arrest ([13]; A431 cells, chemically defined medium): arrested at mitotic metaphase
effect on growth of cancer cells ([13]; Shoji-Kasai et al.): slows the growth of cancer cells

CC(C)C[C@H](NC(=O)[C@@H]1O[C@H]1C(=O)Oc1ccccc1)C(=O)N1CCN(C/C=C/c2ccccc2)CC1 [TOP-013, Bis[phenyl (2R,3R)-3-[(S)-3-methyl-1-[4-(3-phenyl-2-propenyl)piperazin-1-ylcarbonyl]butylcarbamoyl]oxirane-2-carboxylate] Sulfate]
anti-neoplastic activity (LDH release) / potency compared to NCO-700 ([4]; HS-578T, alone): higher potency
